Measurements: ChEMBL document CHEMBL4118148, “Design, synthesis and cardiovascular evaluation of some aminoisopropanoloxy derivatives of xanthone” (Bioorg Med Chem, 2018)

Legend:
Rattus norvegicus [1] = assay: Hypotensive activity in normotensive Wistar rat assessed as systolic blood pressure at 0.5 mg/kg, iv measured after 60 mins (reference value: 116 +/- 4.6 mmHg); format: functional
Rattus norvegicus [2] = assay: Cardiotoxicity in Wistar rat assessed as effect on QRS interval time at 1 mg/kg, iv measured after 5 mins (reference value: 19.4 +/- 0.9 ms); format: toxicity, organism-based; conditions: in vivo
Rattus norvegicus [3] = assay: Cardiotoxicity in Wistar rat assessed as effect on QRS interval time at 1 mg/kg, iv measured after 15 mins (reference value: 19.4 +/- 0.9 ms); format: toxicity, organism-based; conditions: in vivo, 0.25 h
Rattus norvegicus [4] = assay: Cardiotoxicity in Wistar rat assessed as effect on QT interval time at 1 mg/kg, iv measured after 15 mins (reference value: 59.2 +/- 0.5 ms); format: toxicity, organism-based; conditions: in vivo, 0.25 h

SMILES	Activity (Rattus norvegicus [1])	Time (Rattus norvegicus [2])	Time (Rattus norvegicus [3])	Time (Rattus norvegicus [4])
Cl.O=c1c2ccccc2oc2c(OCC(O)CN3CCN(c4ccccn4)CC3)cccc12 (racemic)	105.7 mmHg			
CC(C)(C)NCC(O)COc1cccc2c(=O)c3ccccc3oc12.Cl (racemic)		19 ms	19.2 ms	59.6 ms
